Results published in ChEMBL document CHEMBL1914340, “Effect of the leukotriene A4 hydrolase aminopeptidase augmentor 4-methoxydiphenylmethane in a pre-clinical model of pulmonary emphysema” (Bioorg Med Chem Lett, 2011).
Calls of active or inactive are those of the source. The calls are words filed in the database; no cut-off is given here.

Experiments:
[1] = Chemical stability of the compound assessed as degradation at pH 6.8; format: physicochemical; details: buffer
[2] = Toxicity in mouse; format: organism-based; details: in vivo
[3] = molecular target: T1, Leukotriene A-4 hydrolase (Homo sapiens) (UniProt P09960); assay: Activation of aminopeptidase activity of LTA4H assessed as compound concentration required to 50% activation using L-alanine-p-nitroanilide as substrate by spectrophotometry
T1 sequence (whole entry): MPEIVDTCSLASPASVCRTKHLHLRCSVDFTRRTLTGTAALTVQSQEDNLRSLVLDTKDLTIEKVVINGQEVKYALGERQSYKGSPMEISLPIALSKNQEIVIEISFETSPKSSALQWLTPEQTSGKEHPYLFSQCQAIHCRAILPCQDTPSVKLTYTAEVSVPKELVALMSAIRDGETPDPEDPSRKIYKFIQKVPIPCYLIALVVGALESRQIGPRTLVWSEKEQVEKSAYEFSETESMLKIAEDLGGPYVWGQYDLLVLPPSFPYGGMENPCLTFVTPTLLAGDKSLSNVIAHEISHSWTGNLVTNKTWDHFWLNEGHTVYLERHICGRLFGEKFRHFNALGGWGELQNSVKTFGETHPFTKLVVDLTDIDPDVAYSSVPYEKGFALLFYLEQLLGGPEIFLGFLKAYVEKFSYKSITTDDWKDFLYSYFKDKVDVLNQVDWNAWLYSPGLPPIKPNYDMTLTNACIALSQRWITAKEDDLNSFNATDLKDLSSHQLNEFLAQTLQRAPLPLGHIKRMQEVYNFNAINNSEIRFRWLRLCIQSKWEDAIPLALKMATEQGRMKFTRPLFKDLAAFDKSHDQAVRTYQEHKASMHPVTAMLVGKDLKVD

[4] = tested on: Mus musculus; assay: Antiemphysema activity in wild type mouse assessed as reduction in intranasal elastase-induced lung compliance at 30 mg/kg, ip qd for 28 days by flexivent relative to vehicle-treated control; format: functional, organism-based; parameters: dose 30 mg/kg
[5] = tested on: Mus musculus; assay: Antiemphysema activity in wild type mouse assessed as reduction in intranasal elastase-induced lung volume at 30 mg/kg, ip qd for 28 days measured after 18 hrs of post mortem by volume displacement technique relative to vehicle-treated control; format: functional, organism-based; parameters: dose 30 mg/kg
[6] = tested on: Mus musculus; assay: Antiemphysema activity in wild type mouse assessed as shorter chord length at 30 mg/kg, ip qd for 28 days measured after 18 hrs of post mortem by volume displacement technique relative to vehicle-treated control; format: functional, organism-based; parameters: dose 30 mg/kg
[7] = tested on: Mus musculus; assay: Effect on intransal elastase-induced LTB4 level in broncho alveolar lavage fluid in ip dosed mouse by ELISA (reference value: 93.1 +/- 26.1 pg/mL); format: functional, organism-based

Row | Compound | Stability [1] | MTD [2] [mg/kg] | Activity [3] [µM] | Activity [4] | Activity [5] | Activity [6] | Activity [7]
1 | COc1ccc(Oc2ccccc2)cc1 | Unstable | 30 | – | – | – | – | –
2 | COc1ccc(Cc2ccccc2)cc1 | Stable | – | 50 | Active | Active | Active | inactive
